{"source": "ChEMBL document CHEMBL4602617", "about": "“Discovery and optimization of heteroaryl piperazines as potent and selective PI3Kδ inhibitors” (Bioorg Med Chem Lett, 2020)", "key": {"[1]": {"test": "Half life in rat at 0.5 mg/kg, iv 1 mg/kg, po", "type": "ADME, organism-based", "conditions": "in vivo"}, "[2]": {"biological_target": "Voltage-gated inwardly rectifying potassium channel KCNH2 (Homo sapiens, UniProt Q12809)", "test": "Inhibition of human ERG"}, "Aurora kinase C": {"biological_target": "Aurora kinase C (Homo sapiens, UniProt Q9UQB9)", "sequence (Q9UQB9 whole entry)": "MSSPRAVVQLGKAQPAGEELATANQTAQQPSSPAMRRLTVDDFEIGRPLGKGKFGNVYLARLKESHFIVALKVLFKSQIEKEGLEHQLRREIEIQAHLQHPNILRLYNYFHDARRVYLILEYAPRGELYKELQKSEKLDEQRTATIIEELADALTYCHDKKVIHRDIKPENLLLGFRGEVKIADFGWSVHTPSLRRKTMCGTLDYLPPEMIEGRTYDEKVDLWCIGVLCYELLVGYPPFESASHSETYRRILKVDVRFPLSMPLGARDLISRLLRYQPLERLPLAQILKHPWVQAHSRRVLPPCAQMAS", "test": "Inhibition of recombinant full length GST-tagged human AURKC expressed in baculovirus expression system using Ser/Thr-19 peptide as substrate incubated for 60 mins in presence of ATP by Z'-LYTE assay"}, "[3]": {"biological_target": "Phosphatidylinositol 4,5-bisphosphate 3-kinase catalytic subunit gamma isoform (Homo sapiens, UniProt P48736)", "sequence (P48736 whole entry, canonical isoform)": "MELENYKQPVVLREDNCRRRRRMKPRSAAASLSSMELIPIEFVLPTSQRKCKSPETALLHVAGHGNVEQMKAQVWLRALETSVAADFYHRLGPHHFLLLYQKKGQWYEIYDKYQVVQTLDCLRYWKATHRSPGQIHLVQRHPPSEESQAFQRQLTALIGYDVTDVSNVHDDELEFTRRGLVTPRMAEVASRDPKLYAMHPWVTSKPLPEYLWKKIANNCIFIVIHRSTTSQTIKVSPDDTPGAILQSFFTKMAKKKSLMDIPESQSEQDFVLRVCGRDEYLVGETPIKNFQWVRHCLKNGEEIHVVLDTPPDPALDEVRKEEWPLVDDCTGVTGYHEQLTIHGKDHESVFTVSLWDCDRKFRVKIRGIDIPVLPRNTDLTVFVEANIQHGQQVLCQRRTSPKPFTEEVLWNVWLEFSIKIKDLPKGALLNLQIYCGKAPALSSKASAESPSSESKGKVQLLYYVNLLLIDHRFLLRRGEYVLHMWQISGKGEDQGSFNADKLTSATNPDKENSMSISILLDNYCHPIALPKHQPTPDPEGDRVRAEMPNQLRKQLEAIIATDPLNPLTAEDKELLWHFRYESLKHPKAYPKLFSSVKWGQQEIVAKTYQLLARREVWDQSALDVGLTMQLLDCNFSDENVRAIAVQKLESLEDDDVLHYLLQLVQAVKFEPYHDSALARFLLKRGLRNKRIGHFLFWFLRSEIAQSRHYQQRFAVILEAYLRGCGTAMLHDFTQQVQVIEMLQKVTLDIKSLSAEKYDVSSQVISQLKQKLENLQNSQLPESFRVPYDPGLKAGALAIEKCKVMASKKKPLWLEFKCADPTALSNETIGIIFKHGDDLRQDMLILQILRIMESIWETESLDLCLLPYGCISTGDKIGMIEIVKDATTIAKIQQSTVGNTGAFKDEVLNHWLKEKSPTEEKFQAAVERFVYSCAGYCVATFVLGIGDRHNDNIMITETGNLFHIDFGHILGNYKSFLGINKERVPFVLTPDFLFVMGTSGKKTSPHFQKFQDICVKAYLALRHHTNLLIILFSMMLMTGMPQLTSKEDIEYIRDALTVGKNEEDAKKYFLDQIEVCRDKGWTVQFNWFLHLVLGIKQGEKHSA", "test": "Inhibition of His-tagged recombinant human full length PI3K p110gamma expressed in baculovirus expression system using PIP2:PS lipid as substrate incubated for 1 hr in presence of ATP by Adapta assay"}, "[4]": {"biological_target": "Peroxisome proliferator-activated receptor alpha (Homo sapiens) (UniProt Q07869)", "test": "Inhibition of human PPARalpha expressed in Escherichia coli at 10 uM relative to control"}, "Rattus norvegicus [5]": {"species": "Rattus norvegicus", "test": "Displacement of [3H]hemicholinium-3 from choline transporter in Wistar rat striatal membranes at 10 uM after 20 mins by radiometric scintillation analysis relative to control", "type": "cell membranes", "conditions": "Striatum, Membrane"}, "[6]": {"biological_target": "Prostaglandin F2-alpha receptor (Homo sapiens) (UniProt P43088)", "test": "Displacement of [3H]PGF2alpha from full length human recombinant prostanoid FP receptor expressed in HEK293 cells at 10 uM measured after 60 mins by radiometric scintillation analysis relative to control", "type": "cell-based"}, "[7]": {"biological_target": "Mu-type opioid receptor (Homo sapiens) (UniProt P35372)", "test": "Displacement of [3H]diprenorphine from full length human recombinant Mu opioid receptor expressed in CHO-K1 cells at 10 uM measured after 60 mins by radiometric scintillation analysis relative to control", "type": "cell-based"}, "[8]": {"biological_target": "Glutamate NMDA receptor (Rattus norvegicus) (UniProt P35439+Q00959+Q00960+Q00961+Q62645+Q8VHN2+Q9R1M7)", "test": "Displacement of [3H]CGP-39653 from glutamate NMDA receptor in Wistar rat cerebral cortical membranes at 10 uM incubated for 20 mins by radiometric scintillation analysis relative to control"}, "Rattus norvegicus [9]": {"species": "Rattus norvegicus", "test": "Displacement of [3H]CGP-54626 from GABAB in Wistar rat whole brain at 10 uM incubated for 20 mins by radiometric scintillation analysis relative to control", "type": "tissue-based"}, "[10]": {"biological_target": "Cannabinoid receptor 2 (Homo sapiens) (UniProt P34972)", "sequence (P34972 whole entry)": "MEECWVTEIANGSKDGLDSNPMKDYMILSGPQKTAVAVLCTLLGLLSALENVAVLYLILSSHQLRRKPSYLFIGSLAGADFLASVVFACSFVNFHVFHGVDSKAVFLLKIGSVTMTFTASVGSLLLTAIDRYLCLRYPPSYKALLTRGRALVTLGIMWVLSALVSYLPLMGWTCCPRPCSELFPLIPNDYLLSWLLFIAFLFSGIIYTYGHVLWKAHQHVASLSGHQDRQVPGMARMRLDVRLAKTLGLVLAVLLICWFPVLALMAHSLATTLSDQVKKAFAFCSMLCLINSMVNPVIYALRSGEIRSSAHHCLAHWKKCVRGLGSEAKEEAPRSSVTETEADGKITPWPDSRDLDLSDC", "test": "Displacement of [3H]WIN55212-2 from recombinant full length human recombinant CB2 receptor expressed in CHOK1 cells at 10 uM measured after 90 mins by radiometric scintillation analysis relative to control", "type": "cell-based", "conditions": "CHO-K1"}, "[11]": {"biological_target": "B1 bradykinin receptor (Homo sapiens) (UniProt P46663)", "sequence (P46663 whole entry)": "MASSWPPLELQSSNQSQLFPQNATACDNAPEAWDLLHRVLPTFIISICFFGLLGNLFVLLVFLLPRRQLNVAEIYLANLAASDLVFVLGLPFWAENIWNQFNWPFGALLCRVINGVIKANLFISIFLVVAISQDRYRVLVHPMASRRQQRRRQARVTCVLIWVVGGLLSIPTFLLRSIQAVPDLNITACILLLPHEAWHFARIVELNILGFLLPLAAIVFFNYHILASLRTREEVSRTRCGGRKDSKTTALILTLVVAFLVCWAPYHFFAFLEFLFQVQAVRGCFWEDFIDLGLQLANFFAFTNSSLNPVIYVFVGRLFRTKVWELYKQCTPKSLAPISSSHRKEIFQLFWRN", "test": "Inhibition of human B1 bradykinin receptor at 10 uM relative to control"}, "[12]": {"biological_target": "Beta-2 adrenergic receptor (Homo sapiens) (UniProt P07550)", "test": "Displacement of [3H]CGP-12177 from full-length recombinant human beta2 adrenergic receptor expressed in CHO cells co-expressing NBR1 at 10 uM measured after 60 mins by scintillation counting method relative to control", "type": "cell-based"}, "Caspase-9 (Homo sapiens)": {"biological_target": "Caspase-9 (Homo sapiens) (UniProt P55211)", "test": "Inhibition of recombinant human caspase 9 expressed in Escherichia coli at 10 uM using Ac-LEHD-AFC as substrate after 60 mins by spectrophotometric analysis relative to control"}, "[13]": {"biological_target": "Epidermal growth factor receptor (Homo sapiens, UniProt P00533, L858R/T790M)", "test": "Inhibition of human recombinant GST-tagged EGFR L858R/T790M mutant expressed in baculovirus expression system using tyrosine 4 peptide as substrate after 60 mins in presence of ATP FRET based Z'-LYTE assay"}, "[14]": {"biological_target": "Fibroblast growth factor receptor 2 (Homo sapiens, UniProt P21802)", "test": "Inhibition of recombinant His-tagged human FGFR2 (403 to 822 residues) cytoplasmic domain expressed in baculovirus expression system using Tyr 04 peptide as substrate after 1 hr in presence of ATP by Z'-LYTE assay"}, "[15]": {"biological_target": "Tyrosine-protein kinase Fyn (Homo sapiens, UniProt P06241)", "test": "Inhibition of recombinant full length C-terminal His-tagged human FYN cytoplasmic domain expressed in baculovirus expression system using fluorophore-labeled tyrosine-2 peptide as substrate after 1 hr in presence of ATP by Z'-Lyte assay"}, "[16]": {"biological_target": "Inhibitor of nuclear factor kappa-B kinase subunit beta (Homo sapiens, UniProt O14920)", "test": "Inhibition of recombinant human full-length GST-tagged IKBKB expressed in baculovirus expression system using FRET-labeled Ser/Thr 05 peptide as substrate measured after 1 hr in presence of ATP by Z'-lyte assay"}, "[17]": {"biological_target": "Mitogen-activated protein kinase kinase kinase 9 (Homo sapiens, UniProt P80192)", "test": "Inhibition of recombinant human GST-tagged MAP3K9 catalytic domain expressed in baculovirus expression system using serine/threonine-7 peptide as substrate incubated for 60 mins in presence of ATP by Z'-LYTE assay"}, "[18]": {"biological_target": "Mitogen-activated protein kinase 9 (Homo sapiens, UniProt P45984)", "test": "Inhibition of recombinant full length human His-tagged JNK2 expressed in baculovirus expression system using serine/threonine-4 peptide as substrate incubated for 60 mins in presence of ATP by Z'-LYTE assay"}, "[19]": {"biological_target": "Serine/threonine-protein kinase Nek1 (Homo sapiens, UniProt Q96PY6)", "sequence (Q96PY6 whole entry, the tested form may be a part)": "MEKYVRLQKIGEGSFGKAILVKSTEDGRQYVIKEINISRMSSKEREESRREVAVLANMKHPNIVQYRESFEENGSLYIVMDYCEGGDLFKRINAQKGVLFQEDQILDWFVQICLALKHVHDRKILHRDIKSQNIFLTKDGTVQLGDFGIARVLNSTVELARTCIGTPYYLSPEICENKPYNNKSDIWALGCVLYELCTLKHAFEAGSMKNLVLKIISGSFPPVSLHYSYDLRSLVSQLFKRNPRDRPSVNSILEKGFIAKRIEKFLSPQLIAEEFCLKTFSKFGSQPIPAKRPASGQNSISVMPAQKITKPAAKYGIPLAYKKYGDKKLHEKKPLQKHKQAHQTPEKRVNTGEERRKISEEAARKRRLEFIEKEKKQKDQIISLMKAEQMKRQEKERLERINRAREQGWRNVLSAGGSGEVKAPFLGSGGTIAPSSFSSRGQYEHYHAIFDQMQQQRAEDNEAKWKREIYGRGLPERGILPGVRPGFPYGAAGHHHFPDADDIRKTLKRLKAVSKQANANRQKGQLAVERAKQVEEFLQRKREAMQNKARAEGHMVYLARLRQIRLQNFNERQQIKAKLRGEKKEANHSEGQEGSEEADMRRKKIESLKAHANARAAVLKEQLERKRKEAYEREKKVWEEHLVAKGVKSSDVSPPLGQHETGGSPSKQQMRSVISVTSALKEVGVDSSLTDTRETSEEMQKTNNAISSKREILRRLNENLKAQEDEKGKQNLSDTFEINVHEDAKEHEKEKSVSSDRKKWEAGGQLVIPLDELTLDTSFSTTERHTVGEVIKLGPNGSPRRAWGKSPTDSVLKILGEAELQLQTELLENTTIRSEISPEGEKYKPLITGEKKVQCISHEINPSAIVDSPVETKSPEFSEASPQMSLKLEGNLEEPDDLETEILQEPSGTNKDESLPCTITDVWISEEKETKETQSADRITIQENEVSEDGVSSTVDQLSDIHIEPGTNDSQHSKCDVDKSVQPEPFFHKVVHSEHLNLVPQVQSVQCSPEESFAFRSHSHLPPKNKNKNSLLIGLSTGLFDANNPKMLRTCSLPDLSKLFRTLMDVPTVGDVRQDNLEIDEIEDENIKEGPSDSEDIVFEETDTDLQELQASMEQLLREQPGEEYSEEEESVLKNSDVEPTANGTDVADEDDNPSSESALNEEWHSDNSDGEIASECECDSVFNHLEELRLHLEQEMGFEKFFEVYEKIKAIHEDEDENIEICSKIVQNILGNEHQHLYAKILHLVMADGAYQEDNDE", "test": "Inhibition of recombinant human GST-tagged NEK1 catalytic domain (1 to 505 residues) expressed in baculovirus expression system using serine/threonine-7 peptide as substrate incubated for 60 mins in presence of ATP by Z'-LYTE assay"}, "[20]": {"biological_target": "High affinity nerve growth factor receptor (Homo sapiens, UniProt P04629)", "test": "Inhibition of recombinant human His-tagged NTRK1 cytoplasmic domain expressed in baculovirus expression system using FRET-labeled tyr 07 peptide as substrate measured after 1 hr in presence of ATP by Z'-lyte assay"}, "[21]": {"biological_target": "Serine/threonine-protein kinase PAK 1 (Homo sapiens, UniProt Q13153)", "sequence (Q13153 whole entry)": "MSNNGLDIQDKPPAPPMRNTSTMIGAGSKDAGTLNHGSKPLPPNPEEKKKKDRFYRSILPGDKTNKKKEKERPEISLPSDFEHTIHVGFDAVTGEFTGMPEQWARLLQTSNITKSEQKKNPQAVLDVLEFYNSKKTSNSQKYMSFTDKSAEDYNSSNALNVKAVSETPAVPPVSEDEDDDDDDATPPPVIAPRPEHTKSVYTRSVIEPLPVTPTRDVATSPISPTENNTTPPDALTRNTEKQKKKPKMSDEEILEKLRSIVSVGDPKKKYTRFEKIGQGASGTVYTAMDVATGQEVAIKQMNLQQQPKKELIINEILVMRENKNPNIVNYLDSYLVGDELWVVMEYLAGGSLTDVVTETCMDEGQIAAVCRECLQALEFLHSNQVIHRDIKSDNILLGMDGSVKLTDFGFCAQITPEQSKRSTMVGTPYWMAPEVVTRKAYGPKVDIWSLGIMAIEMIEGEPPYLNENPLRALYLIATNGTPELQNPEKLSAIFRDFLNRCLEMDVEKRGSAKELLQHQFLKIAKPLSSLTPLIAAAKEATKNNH", "test": "Inhibition of recombinant full length human GST-tagged PAK1 expressed in baculovirus expression system using serine/threonine-19 peptide as substrate incubated for 60 mins in presence of ATP by Z'-LYTE assay"}, "Focal adhesion kinase 1": {"biological_target": "Focal adhesion kinase 1 (Homo sapiens, UniProt Q05397)", "test": "Inhibition of recombinant full length human GST-tagged PTK2 expressed in baculovirus expression system using tyr07 peptide as substrate incubated for 60 mins in presence of ATP by Z'-LYTE assay"}, "[22]": {"biological_target": "Ribosomal protein S6 kinase alpha-5 (Homo sapiens, UniProt O75582)", "test": "Inhibition of recombinant full length human GST-tagged RPS6KA5 expressed in baculovirus expression system using ser/Thr01 peptide as substrate incubated for 60 mins in presence of ATP by Z'-LYTE assay"}, "[23]": {"biological_target": "Serine/threonine-protein kinase SIK2 (Homo sapiens, UniProt Q9H0K1)", "sequence (Q9H0K1 whole entry)": "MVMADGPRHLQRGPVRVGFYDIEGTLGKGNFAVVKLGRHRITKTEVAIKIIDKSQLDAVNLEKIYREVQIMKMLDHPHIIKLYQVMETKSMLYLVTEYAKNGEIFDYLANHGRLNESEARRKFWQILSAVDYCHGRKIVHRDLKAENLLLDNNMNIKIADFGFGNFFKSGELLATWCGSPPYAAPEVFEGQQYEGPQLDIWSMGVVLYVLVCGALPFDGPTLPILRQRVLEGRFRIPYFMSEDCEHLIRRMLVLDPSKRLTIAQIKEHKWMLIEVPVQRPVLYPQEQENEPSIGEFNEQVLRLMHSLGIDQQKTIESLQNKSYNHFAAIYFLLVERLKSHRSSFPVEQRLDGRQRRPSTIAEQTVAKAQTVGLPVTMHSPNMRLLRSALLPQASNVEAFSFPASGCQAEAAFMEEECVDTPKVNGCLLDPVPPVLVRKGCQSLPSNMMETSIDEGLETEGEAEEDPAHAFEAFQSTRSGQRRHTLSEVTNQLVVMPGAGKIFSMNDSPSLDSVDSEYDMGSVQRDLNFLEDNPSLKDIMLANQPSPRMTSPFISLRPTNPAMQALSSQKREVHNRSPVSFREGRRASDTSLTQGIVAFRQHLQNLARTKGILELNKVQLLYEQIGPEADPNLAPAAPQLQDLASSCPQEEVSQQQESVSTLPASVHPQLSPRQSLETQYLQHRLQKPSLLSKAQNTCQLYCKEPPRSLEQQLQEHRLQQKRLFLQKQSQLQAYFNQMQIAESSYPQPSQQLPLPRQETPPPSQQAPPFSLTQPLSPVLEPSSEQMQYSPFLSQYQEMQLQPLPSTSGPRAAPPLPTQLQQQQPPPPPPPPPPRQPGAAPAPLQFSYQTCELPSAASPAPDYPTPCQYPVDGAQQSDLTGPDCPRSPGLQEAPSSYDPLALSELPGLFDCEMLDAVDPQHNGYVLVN", "test": "Inhibition of recombinant full length GST-tagged human SNF1LK2 expressed in baculovirus expression system using Ser/Thr 25 as substrate in presence of ATP after 1 hr by Z'LYTE assay"}}}
{"smiles": "C[C@@H]1C[C@H]1C(=O)N1CCN(c2cnc(C#N)c(-c3cnn(C)c3)n2)C[C@H]1C", "values": [{"measurement": "half-life", "setting": "[1]", "result": 36, "unit": "min"}, {"measurement": "IC50", "setting": "[2]", "result": 23, "unit": "µM"}, {"measurement": "IC50", "setting": "Aurora kinase C", "result": "> 100", "unit": "µM"}, {"measurement": "IC50", "setting": "[3]", "result": 0.945, "unit": "µM"}, {"measurement": "inhibition", "setting": "[4]", "result": "> 50", "unit": "%"}, {"measurement": "inhibition", "setting": "Rattus norvegicus [5]", "result": -8, "unit": "%"}, {"measurement": "inhibition", "setting": "[6]", "result": 9, "unit": "%"}, {"measurement": "inhibition", "setting": "[7]", "result": 5, "unit": "%"}, {"measurement": "inhibition", "setting": "[8]", "result": -1, "unit": "%"}, {"measurement": "inhibition", "setting": "Rattus norvegicus [9]", "result": -2, "unit": "%"}, {"measurement": "inhibition", "setting": "[10]", "result": 2, "unit": "%"}, {"measurement": "inhibition", "setting": "[11]", "result": -1, "unit": "%"}, {"measurement": "inhibition", "setting": "[12]", "result": 7, "unit": "%"}, {"measurement": "inhibition", "setting": "Caspase-9 (Homo sapiens)", "result": 2, "unit": "%"}, {"measurement": "IC50", "setting": "[13]", "result": "> 100", "unit": "µM"}, {"measurement": "IC50", "setting": "[14]", "result": "> 100", "unit": "µM"}, {"measurement": "IC50", "setting": "[15]", "result": "> 100", "unit": "µM"}, {"measurement": "IC50", "setting": "[16]", "result": "> 100", "unit": "µM"}, {"measurement": "IC50", "setting": "[17]", "result": "> 100", "unit": "µM"}, {"measurement": "IC50", "setting": "[18]", "result": "> 100", "unit": "µM"}, {"measurement": "IC50", "setting": "[19]", "result": "> 100", "unit": "µM"}, {"measurement": "IC50", "setting": "[20]", "result": "> 100", "unit": "µM"}, {"measurement": "IC50", "setting": "[21]", "result": "> 100", "unit": "µM"}, {"measurement": "IC50", "setting": "Focal adhesion kinase 1", "result": "> 100", "unit": "µM"}, {"measurement": "IC50", "setting": "[22]", "result": "> 100", "unit": "µM"}, {"measurement": "IC50", "setting": "[23]", "result": "> 100", "unit": "µM"}]}
